We go through one molecule from patent US20230250095A1, “BENZIMIDAZOLE DERIVATIVES, PREPARATION METHOD THEREFOR AND MEDICAL USE THEREOF” (TUOJIE BIOTECH(SHANGHAI) CO., LTD., priority 2020, published 2023).

The nature of data set [1]: Caco-2 permeability assay. It is filed as in vitro ADME. As to conditions: human. As for the experimental part: The apparent permeability coefficient (Papp) of the analytical drug was determined by liquid chromatography-tandem mass spectrometry (LC/MS/MS) through a Caco-2 cell model.
The transfer rate of drug from the apical end to the basal end was determined. 108 μL of HBSS (25 mM HEPES, pH 7.4) containing 10 μM test compound was added to the apical end of the upper chamber of Transwell (purchased from Corning) containing Caco-2 cells (purchased from ATCC) at a density of 6.86×10^5 cells/cm^2, and meanwhile, 8 μL of the sample was added, as an initial dosing-end sample (A-B), to a new 96-well plate to which 72 μL of HBSS (25 mM HEPES, pH 7.4) and 240 μL of acetonitrile (containing 100 nM alprazolam, 200 nM caffeine and 100 nM tolbutamide) had been added, and the plate was vortexed at 1000 rpm for 10 min. 300 μL of HBSS (25 mM HEPES, pH 7.4) was added to the basal end.
The transfer rate of drug from the basal end to the apical end was determined. 308 μL of HBSS (25 mM HEPES, pH 7.4) containing 10 μM test compound was added to wells of the basal end of the plate, and meanwhile, 8 μL of the sample was added, as an initial dosing-end sample (B-A), to a new 96-well plate to which 72 μL of HBSS (25 mM HEPES, pH 7.4) and 240 μL of acetonitrile (containing 100 nM alprazolam, 200 nM caffeine and 100 nM tolbutamide) had been added. The plate was vortexed at 1000 rpm for 10 min, and 100 μL of HBSS (25 mM HEPES, pH 7.4) was added to the apical end.
The transfer rate from the apical end to the basal end and the transfer rate from the basal end to the apical end need to be determined simultaneously.
At the end of the transfer cycle, 8 μL of the sample was taken from the dosing end (apical end of A-B flow and basal end of B-A flow) and added to 72 μL of HBSS (25 mM HEPES, pH 7.4) and 240 μL of acetonitrile (containing 100 nM alprazolam, 200 nM caffeine and 100 nM tolbutamide), and the mixture was added to a new 96-well plate. 80 μL of the liquid was taken directly from each of the basal end of the A-B flow and the apical end of the B-A flow, and added together with 240 μL of acetonitrile (containing 100 nM alprazolam, 200 nM caffeine and 100 nM tolbutamide) to a new 96-well plate. The plates were vortexed at 1000 rpm for 10 min. The samples were centrifuged at 4000 rpm for 30 min. 100 μL of the supernatant was transferred to a new 96-well plate. All samples were analyzed by LC-MS/MS with 100 μL of pure water.
Data were calculated using Microsoft Excel and peak areas were calculated from the chromatograms. The apparent permeability coefficient (Papp) is in cm/s and is calculated using the following formula: […]
Papp is apparent permeability (cm/s×10^−6);
The outflow ratio can be determined by the following equation: […]
For orientation: Caco-2 cells form a polarised layer with tight junctions and transporters.

Data set [2] is described as follows: In vivo pharmacokinetic experiment in rats, intragastric administration. As to conditions: SD rats, 5 mg/kg. As for the experimental part:
The drug concentrations in the plasma of the test animals (rats) at different time points after intragastric administration of the compound of the present disclosure were determined by an LC/MS/MS method. The pharmacokinetic behavior in rats of the compound of the present disclosure was studied and its pharmacokinetic profile was evaluated.
Male, healthy SD rats of SPF grade, 6-8 weeks old, 3 rats in each group.
Intragastric administration: a certain amount of compound was weighed and prepared into a 1 mg/mL white suspension by adding 0.5% by volume of hydroxypropyl methylcellulose, 0.1% by volume of tween 80 and 99.4% by volume of water.
SD rats were administered intragastrically with compound 4 or BLU-5937 at a dose of 5 mg/kg after fasting overnight.
Rats were administered intragastrically with the compound of the present disclosure. 0.2 mL of blood was collected from the jugular vein at 0.25 h, 0.5 h, 1 h, 2 h, 4 h, 8 h and 24 h after the administration, placed in a tube containing EDTA-K2, separated by centrifugation at 4° C. at 4000 rpm for 5 min to obtain plasma, which was stored at −75° C.
Determination of the content of the test compounds at different concentrations in the plasma of rats after intragastric administration: 50 μL of rat plasma at each time point after the administration was taken, 200 μL of a solution of internal standard dexamethasone (50 ng/mL) in acetonitrile was added thereto, and the mixture was vortexed for 30 s to be mixed well, centrifuged at 4° C. at 4700 rpm for 15 min. The supernatant of the plasma sample was subjected to 3-fold dilution with water, and 2.0 μL of the dilution was taken for LC/MS/MS analysis.

Consider `CNC(=O)c1cc(F)c(-c2nc3cc(C)ccn3c2C[C@H]2CN(C(=O)OC)CCO2)c(F)c1` [BLU-5937, reference compound], for which the Papp A→B at 10 μM in data set [1] (Caco-2, 10 μM test compound, apical to basal, pH 7.4) was found to be 2.4 ×10⁻⁶ cm/s. The efflux ratio at 10 μM in data set [1] (Caco-2, Papp (B-A)/Papp (A-B), read-out: Outflow ratio) is 1.2. For the same molecule, in data set [2], the “V” value was determined as 1.09 L/kg. For the same molecule, in data set [2] (male, rat, plasma, po), the Tmax was 15 min and the half-life was 174 min. Also, in data set [2] (male, rat, po, plasma), the AUC(0-t) turned out to be 361 ng·h/mL and the highest level (Cmax) was 151 ng/mL.

What is called Papp A→B is how fast a substance crosses the layer from the apical side. High values mean ready permeation, low ones poor permeation. As usually defined, the Tmax is the time at which the peak concentration occurs. Usually half-life stands for the time needed for the level to fall by half in the phase considered. A lower half-life goes with rapid decline. Broadly, the AUC(0-t) is exposure summed from dosing to a finite time, without extrapolation to infinity. A lower AUC(0-t) goes with low exposure. The term Cmax denotes the highest concentration seen after dosing.
